IC50 data for 21 compounds are collected here from patent US20240343704A1, “HALO-SUBSTITUTED AMINO PYRIDINE COMPOUNDS AS INHIBITORS OF THE HAEMATOPOIETIC PROGENITOR KINASE 1 (HPK1)” (priority 2021, published 2024).

Each structure is given as a SMILES string.

The target of the experiment is T1, Recombinant (1-346) HPK1 (h) (Homo sapiens, UniProt Q92918).
T1 construct: Recombinant (1-346) HPK1 (h) is incubated with 8 mM MOPS pH 7.0
T1 sequence (Q92918 1-346): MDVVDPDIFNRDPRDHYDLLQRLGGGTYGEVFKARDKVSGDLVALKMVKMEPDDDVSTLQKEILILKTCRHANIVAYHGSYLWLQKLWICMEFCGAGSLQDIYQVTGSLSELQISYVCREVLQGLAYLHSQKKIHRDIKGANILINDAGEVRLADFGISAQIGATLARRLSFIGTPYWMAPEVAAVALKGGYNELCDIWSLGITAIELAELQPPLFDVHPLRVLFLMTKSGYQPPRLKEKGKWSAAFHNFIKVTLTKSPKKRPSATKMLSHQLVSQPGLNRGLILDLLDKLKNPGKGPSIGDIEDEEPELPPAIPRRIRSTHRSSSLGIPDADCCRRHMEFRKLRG
Description: HPK1 Human STE Kinase Enzymatic Radiometric Assay. Type of experiment: biochemical. The following applies: read-out: HPK1 IC50 nM Range*. As to the method:
A stock solution of 10 mM of test compound is prepared in DMSO. The compound plate was prepared by 3-fold and 9-point serial dilutions. […] The reaction is initiated by The addition of the Mg/ATP mix. After incubation for 40 minutes at RT, the reaction is stopped by the addition of phosphoric acid to a concentration of 0.5%.
Regarding `Nc1nc(F)c(-c2ccc(N3CCOCC3)c(CN3CCCC3)c2)cc1-c1cc2c(cc1F)C(=O)NCC2` [I-492, 6-(2-amino-6-fluoro-5-(4-morpholino-3-(pyrrolidin-1-ylmethyl)phenyl)pyridin-3-yl)-7-fluoro-3,4-dihydroisoquinolin-1(2H)-one], the IC50 is 11 to 100 nM.

Regarding `CC(C)N1CCN(c2ccc(-c3cc(-c4ncc5c(n4)CCNC5=O)c(N)nc3F)cc2)CC1` [I-458, 2-(2-amino-6-fluoro-5-(4-(4-isopropylpiperazin-1-yl)phenyl)pyridin-3-yl)-7,8-dihydropyrido[4,3-d]pyrimidin-5(6H)-one], the IC50 is 0.1 to 10 nM.

On to `CN(C)Cc1cc(-c2cc(-c3ccc4c(c3)CCNC4=O)c(N)nc2F)ccc1OC1CCOCC1` [I-530, 6-(2-amino-5-(3-((dimethylamino)methyl)-4-((tetrahydro-2H-pyran-4-yl)oxy)phenyl)-6-fluoropyridin-3-yl)-3,4-dihydroisoquinolin-1(2H)-one], for which the half-inhibitory concentration (IC50) was in the range of 11 to 100 nM.

On to `CN(C)Cc1cc(-c2cc(-c3cc4c(cc3F)C(=O)NCC4)c(N)nc2F)ccc1OCC1CC1` [I-507, 6-(2-amino-5-(4-(cyclopropylmethoxy)-3-((dimethylamino)methyl)phenyl)-6-fluoropyridin-3-yl)-7-fluoro-3,4-dihydroisoquinolin-1(2H)-one], for which the half-inhibitory concentration (IC50) was 11 to 100 nM.

In the case of `Cc1c[nH]c(=O)c2ccc(-c3cc(-c4ccc([C@]56C[C@H]5CN(C)C6)cc4)c(F)nc3N)cc12` [I-471, 6-(2-amino-6-fluoro-5-(4-((1S,5R)-3-methyl-3-azabicyclo[3.1.0]hexan-1-yl)phenyl)pyridin-3-yl)-4-methylisoquinolin-1(2H)-one], the IC50 fell in the range of 0.1 to 10 nM.

Regarding `CC(C)N1CCN(c2ccc(-c3cc(-c4ccc5c(=O)[nH]c(N(C)C)nc5c4)c(N)nc3F)cc2)CC1` [I-420, 7-(2-amino-6-fluoro-5-(4-(4-isopropylpiperazin-1-yl)phenyl)pyridin-3-yl)-2-(dimethylamino)quinazolin-4(3H)-one], the IC50 was 101 to 1000 nM.

On to `CN(C)Cc1cc(-c2cc(-c3ccc4c(c3)CCNC4=O)c(N)nc2F)c(F)c(F)c1N1CCOCC1` [I-623, 6-(2-amino-5-(5-((dimethylamino)methyl)-2,3-difluoro-4-morpholinophenyl)-6-fluoropyridin-3-yl)-3,4-dihydroisoquinolin-1(2H)-one], for which the IC50 lay in the range of 11 to 100 nM.

As for `CCN(C)Cc1c(N2CCOCC2)ccc(-c2cc(-c3cc4c(cc3F)C(=O)NCC4)c(N)nc2F)c1F` [I-611, 6-(2-amino-5-(3-((ethyl(methyl)amino)methyl)-2-fluoro-4-morpholinophenyl)-6-fluoropyridin-3-yl)-7-fluoro-3,4-dihydroisoquinolin-1(2H)-one], the half-inhibitory concentration (IC50) lay within 11 to 100 nM.

As to `CC(c1cc(-c2cc(-c3ccc4c(c3)CCNC4=O)c(N)nc2F)ccc1O)N(C)C` (stereo not drawn) [I-624, 6-(2-amino-5-(3-(1-(dimethylamino)ethyl)-4-hydroxyphenyl)-6-fluoropyridin-3-yl)-3,4-dihydroisoquinolin-1(2H)-one], the IC50 was 11 to 100 nM.

Take `CN(C)Cc1cc(-c2cc(-c3cc(F)c4c(c3)CCNC4=O)c(N)nc2F)ccc1N1CCOCC1` [I-486, 6-(2-amino-5-(3-((dimethylamino)methyl)-4-morpholinophenyl)-6-fluoropyridin-3-yl)-8-fluoro-3,4-dihydroisoquinolin-1(2H)-one]: the 50% inhibitory concentration (IC50) is 0.1 to 10 nM.

For `Cc1nc2cc(-c3cc(-c4ccc(C5CCOCC5)c([C@@H]5CCCN5)c4)c(F)nc3N)ccc2c(=O)[nH]1` [I-643, (S)-7-(2-amino-6-fluoro-5-(3-(pyrrolidin-2-yl)-4-(tetrahydro-2H-pyran-4-yl)phenyl)pyridin-3-yl)-2-methylquinazolin-4(3H)-one], the 50% inhibitory concentration (IC50) was in the range of 11 to 100 nM.

With `CN(C)Cc1cc(-c2cc(-c3ccc4c(c3)CCNC4=O)c(N)nc2F)ccc1N1CCN(C2CC2)CC1` [I-495, 6-(2-amino-5-(4-(4-cyclopropylpiperazin-1-yl)-3-((dimethylamino)methyl)phenyl)-6-fluoropyridin-3-yl)-3,4-dihydroisoquinolin-1(2H)-one], the IC50 fell in the range of 11 to 100 nM.

For `COC1(C)NC(=O)c2ccc(-c3cc(-c4ccc(N5CCN(C(C)C)CC5)cc4)c(F)nc3N)cc2C1(F)F` (stereo not drawn) [I-450, 6-(2-amino-6-fluoro-5-(4-(4-isopropylpiperazin-1-yl)phenyl)pyridin-3-yl)-4,4-difluoro-3-methoxy-3-methyl-3,4-dihydroisoquinolin-1(2H)-one], the concentration for half-maximal inhibition (IC50) was in the range of 11 to 100 nM.

For `CN(Cc1cc(-c2cc(-c3cc4c(cc3F)C(=O)NCC4)c(N)nc2F)ccc1N1CCOCC1)CC1CCCO1` (stereo not drawn) [I-619, 6-(2-amino-6-fluoro-5-(3-((methyl((tetrahydrofuran-2-yl)methyl)amino)methyl)-4-morpholinophenyl)pyridin-3-yl)-7-fluoro-3,4-dihydroisoquinolin-1(2H)-one], the IC50 was in the range of 11 to 100 nM.

`Cc1nc2cc(-c3cc(-c4ccc(N5C[C@@H](C)N(C)[C@@H](C)C5)cc4)c(F)nc3N)ccc2c(=O)[nH]1` [I-500, 7-(2-amino-6-fluoro-5-(4-((3R,5S)-3,4,5-trimethylpiperazin-1-yl)phenyl)pyridin-3-yl)-2-methylquinazolin-4(3H)-one]: the half-inhibitory concentration (IC50) was in the range of 11 to 100 nM.

As to `COCCN(C)Cc1cc(-c2cc(-c3ccc4c(c3)CCNC4=O)c(N)nc2F)ccc1N1CCOCC1` [I-553, 6-(2-amino-6-fluoro-5-(3-(((2-methoxyethyl)(methyl)amino)methyl)-4-morpholinophenyl)pyridin-3-yl)-3,4-dihydroisoquinolin-1(2H)-one], the concentration for half-maximal inhibition (IC50) lay within 0.1 to 10 nM.

Take `Nc1nc(F)c(-c2ccc(N3CCOCC3)c(CN3CCOCC3)c2)cc1-c1cc2c(cc1F)C(=O)NCC2` [I-497, 6-(2-amino-6-fluoro-5-(4-morpholino-3-(morpholinomethyl)phenyl)pyridin-3-yl)-7-fluoro-3,4-dihydroisoquinolin-1(2H)-one]: the concentration for half-maximal inhibition (IC50) is 11 to 100 nM.

For `CC(C)N(C)Cc1cc(-c2cc(-c3ccc4c(c3)CCNC4=O)c(N)nc2F)ccc1N1CCOCC1` [I-614, 6-(2-amino-6-fluoro-5-(3-((isopropyl(methyl)amino)methyl)-4-morpholinoophenyl)pyridin-3-yl)-3,4-dihydroisoquinolin-1(2H)-one], the IC50 was 11 to 100 nM.

As for `CN(C)Cc1cc(-c2cc(-c3cc4c(cc3F)C(=O)NCC4)c(N)nc2F)ccc1N1CCN(C2CC2)CC1` [I-494, 6-(2-amino-5-(4-(4-cyclopropylpiperazin-1-yl)-3-((dimethylamino)methyl)phenyl)-6-fluoropyridin-3-yl)-7-fluoro-3,4-dihydroisoquinolin-1(2H)-one], the 50% inhibitory concentration (IC50) fell in the range of 11 to 100 nM.

For the compound `CO[C@H]1CCN(Cc2nc(-c3cc(-c4cc5c(cc4F)C(=O)NCC5)c(N)nc3F)ccc2N2CCOCC2)C1` [I-585, (S)-6-(6′-amino-2-fluoro-6-((3-methoxypyrrolidin-1-yl)methyl)-5-morpholino-[2,3′-bipyridin]-5′-yl)-7-fluoro-3,4-dihydroisoquinolin-1(2H)-one], the IC50 fell in the range of 0.1 to 10 nM.

As to `CN(C)Cc1cc(-c2cc(-c3ccc4c(c3)CCNC4=O)c(N)nc2F)ccc1OCC(F)F` [I-555, 6-(2-amino-5-(4-(2,2-difluoroethoxy)-3-((dimethylamino)methyl)phenyl)-6-fluoropyridin-3-yl)-3,4-dihydroisoquinolin-1(2H)-one], the half-maximal inhibitory concentration (IC50) lay in the range of 11 to 100 nM.
